From the supplement of paper PMC10307832

Legend:
Assay in all cases: relative viability (nuclei count vs DMSO), 5 days (fraction); higher = more cells survive
NCI-H3122 = test system: NCI-H3122
How it was run: (§1)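 Relative viability was taken as the ratio of nuclei in treated wells to nuclei in vehicle wells. Lung cancer cell lines in 1536-well plates received compounds by pin tool one day after seeding, either one drug alone or a fixed anchor-drug dose plus five library-drug doses (not always all listed) in √10 steps. Nuclei were counted on 4× images after 5 days of treatment, and values are medians of duplicate plates.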

NCI-H1755 = test system: NCI-H1755
How it was run: as §1

ChaGo-K-1 = test system: ChaGo-K-1
How it was run: as §1

NCI-H1395 = test system: NCI-H1395
How it was run: as §1

HCC-366 = test system: HCC-366
How it was run: as §1

NCI-H2087 = test system: NCI-H2087
How it was run: as §1

CAL-12T = test system: CAL-12T
How it was run: as §1

NCI-H1734 = test system: NCI-H1734
How it was run: as §1

ABC-1 = test system: ABC-1
How it was run: as §1

NCI-H1944 = test system: NCI-H1944
How it was run: as §1

NCI-H1651 = test system: NCI-H1651
How it was run: as §1

NCI-H460 = test system: NCI-H460
How it was run: as §1

LU99A = test system: LU99A
How it was run: as §1

NCI-H2170 = test system: NCI-H2170
How it was run: as §1

NCI-H2405 = test system: NCI-H2405
How it was run: as §1

PC-3 [JPC-3] = test system: PC-3 [JPC-3]
How it was run: as §1

NCI-H1793 = test system: NCI-H1793
How it was run: as §1

RERF-LC-KJ = test system: RERF-LC-KJ
How it was run: as §1

HCC-78 = test system: HCC-78
How it was run: as §1

EPLC-272H = test system: EPLC-272H
How it was run: as §1

LOU-NH91 = test system: LOU-NH91
How it was run: as §1

LC-2-ad = test system: LC-2-ad
How it was run: as §1

## COc1cc(N2CCC(C(N)=O)CC2)ccc1Nc1nc(N)c(Cl)c(Nc2ccccc2S(=O)(=O)C(C)C)n1 [HG-5-88-01] + NC(=O)Nc1cc(-c2cccc(F)c2)sc1C(=O)N[C@H]1CCCNC1 [AZD7762] (partner 0.2 µM)
NCI-H3122; first compound 0.04 µM
  relative viability: 0.744
NCI-H3122; first compound 0.1265 µM
  relative viability: 0.376
NCI-H3122; first compound 0.4 µM
  relative viability: 0.315
NCI-H3122; first compound 1.265 µM
  relative viability: 0.24
NCI-H3122; first compound 4 µM
  relative viability: 0.114
NCI-H1755; first compound 0.04 µM
  relative viability: 0.465
NCI-H1755; first compound 0.1265 µM
  relative viability: 0.476
NCI-H1755; first compound 0.4 µM
  relative viability: 0.419
NCI-H1755; first compound 1.265 µM
  relative viability: 0.449
NCI-H1755; first compound 4 µM
  relative viability: 0.516
ChaGo-K-1; first compound 0.04 µM
  relative viability: 0.842
ChaGo-K-1; first compound 0.1265 µM
  relative viability: 0.909
ChaGo-K-1; first compound 0.4 µM
  relative viability: 0.828
ChaGo-K-1; first compound 1.265 µM
  relative viability: 0.852
ChaGo-K-1; first compound 4 µM
  relative viability: 0.727
NCI-H1395; first compound 0.04 µM
  relative viability: 0.366
NCI-H1395; first compound 0.1265 µM
  relative viability: 0.403
NCI-H1395; first compound 0.4 µM
  relative viability: 0.418
NCI-H1395; first compound 1.265 µM
  relative viability: 0.384
NCI-H1395; first compound 4 µM
  relative viability: 0.362
HCC-366; first compound 0.04 µM
  relative viability: 0.286
HCC-366; first compound 0.1265 µM
  relative viability: 0.294
HCC-366; first compound 0.4 µM
  relative viability: 0.249
HCC-366; first compound 1.265 µM
  relative viability: 0.234
HCC-366; first compound 4 µM
  relative viability: 0.199
NCI-H2087; first compound 0.04 µM
  relative viability: 1.23
NCI-H2087; first compound 0.1265 µM
  relative viability: 1.26
NCI-H2087; first compound 0.4 µM
  relative viability: 1.45
NCI-H2087; first compound 1.265 µM
  relative viability: 1.14
NCI-H2087; first compound 4 µM
  relative viability: 1.17
CAL-12T; first compound 0.04 µM
  relative viability: 0.71
CAL-12T; first compound 0.1265 µM
  relative viability: 0.607
CAL-12T; first compound 0.4 µM
  relative viability: 0.501
CAL-12T; first compound 1.265 µM
  relative viability: 0.539
CAL-12T; first compound 4 µM
  relative viability: 0.399
NCI-H1734; first compound 0.04 µM
  relative viability: 0.515
NCI-H1734; first compound 0.1265 µM
  relative viability: 0.514
NCI-H1734; first compound 0.4 µM
  relative viability: 0.52
NCI-H1734; first compound 1.265 µM
  relative viability: 0.511
NCI-H1734; first compound 4 µM
  relative viability: 0.724
ABC-1; first compound 0.04 µM
  relative viability: 0.663
ABC-1; first compound 0.1265 µM
  relative viability: 0.63
ABC-1; first compound 0.4 µM
  relative viability: 0.645
ABC-1; first compound 1.265 µM
  relative viability: 0.688
ABC-1; first compound 4 µM
  relative viability: 0.657
NCI-H1944; first compound 0.04 µM
  relative viability: 0.586
NCI-H1944; first compound 0.1265 µM
  relative viability: 0.503
NCI-H1944; first compound 0.4 µM
  relative viability: 0.434
NCI-H1944; first compound 1.265 µM
  relative viability: 0.514
NCI-H1944; first compound 4 µM
  relative viability: 0.469
NCI-H1651; first compound 0.04 µM
  relative viability: 0.463
NCI-H1651; first compound 0.1265 µM
  relative viability: 0.447
NCI-H1651; first compound 0.4 µM
  relative viability: 0.439
NCI-H1651; first compound 1.265 µM
  relative viability: 0.342
NCI-H1651; first compound 4 µM
  relative viability: 0.321
NCI-H460; first compound 0.04 µM
  relative viability: 0.7
NCI-H460; first compound 0.1265 µM
  relative viability: 0.63
NCI-H460; first compound 0.4 µM
  relative viability: 0.561
NCI-H460; first compound 1.265 µM
  relative viability: 0.611
NCI-H460; first compound 4 µM
  relative viability: 0.592
LU99A; first compound 0.04 µM
  relative viability: 0.326
LU99A; first compound 0.1265 µM
  relative viability: 0.336
LU99A; first compound 0.4 µM
  relative viability: 0.369
LU99A; first compound 1.265 µM
  relative viability: 0.366
LU99A; first compound 4 µM
  relative viability: 0.295
NCI-H2170; first compound 0.04 µM
  relative viability: 0.819
NCI-H2170; first compound 0.1265 µM
  relative viability: 0.878
NCI-H2170; first compound 0.4 µM
  relative viability: 0.907
NCI-H2170; first compound 1.265 µM
  relative viability: 0.402
NCI-H2170; first compound 4 µM
  relative viability: 0.934
NCI-H2405; first compound 0.04 µM
  relative viability: 0.769
NCI-H2405; first compound 0.1265 µM
  relative viability: 0.659
NCI-H2405; first compound 0.4 µM
  relative viability: 0.569
NCI-H2405; first compound 1.265 µM
  relative viability: 0.638
NCI-H2405; first compound 4 µM
  relative viability: 0.504
PC-3 [JPC-3]; first compound 0.04 µM
  relative viability: 0.863
PC-3 [JPC-3]; first compound 0.1265 µM
  relative viability: 0.703
PC-3 [JPC-3]; first compound 0.4 µM
  relative viability: 0.732
PC-3 [JPC-3]; first compound 1.265 µM
  relative viability: 0.713
PC-3 [JPC-3]; first compound 4 µM
  relative viability: 0.344
NCI-H1793; first compound 0.04 µM
  relative viability: 0.557
NCI-H1793; first compound 0.1265 µM
  relative viability: 0.409
NCI-H1793; first compound 0.4 µM
  relative viability: 0.379
NCI-H1793; first compound 1.265 µM
  relative viability: 0.452
NCI-H1793; first compound 4 µM
  relative viability: 0.186
RERF-LC-KJ; first compound 0.04 µM
  relative viability: 0.995
RERF-LC-KJ; first compound 0.1265 µM
  relative viability: 1.07
RERF-LC-KJ; first compound 0.4 µM
  relative viability: 0.979
RERF-LC-KJ; first compound 1.265 µM
  relative viability: 0.747
RERF-LC-KJ; first compound 4 µM
  relative viability: 0.563
HCC-78; first compound 0.04 µM
  relative viability: 0.576
HCC-78; first compound 0.1265 µM
  relative viability: 0.553
HCC-78; first compound 0.4 µM
  relative viability: 0.472
HCC-78; first compound 1.265 µM
  relative viability: 0.361
HCC-78; first compound 4 µM
  relative viability: 0.364
EPLC-272H; first compound 0.04 µM
  relative viability: 0.215
EPLC-272H; first compound 0.1265 µM
  relative viability: 0.222
EPLC-272H; first compound 0.4 µM
  relative viability: 0.203
EPLC-272H; first compound 1.265 µM
  relative viability: 0.234
EPLC-272H; first compound 4 µM
  relative viability: 0.0657
LOU-NH91; first compound 0.04 µM
  relative viability: 0.809
LOU-NH91; first compound 0.1265 µM
  relative viability: 0.677
LOU-NH91; first compound 0.4 µM
  relative viability: 0.649
LOU-NH91; first compound 1.265 µM
  relative viability: 0.551
LOU-NH91; first compound 4 µM
  relative viability: 0.514
LC-2-ad; first compound 0.04 µM
  relative viability: 0.888
LC-2-ad; first compound 0.1265 µM
  relative viability: 0.76
LC-2-ad; first compound 0.4 µM
  relative viability: 0.787
LC-2-ad; first compound 1.265 µM
  relative viability: 0.857
LC-2-ad; first compound 4 µM
  relative viability: 0.87
